Assay: Oral absorbability of cefditoren pivoxil suspensions in dogs
Type: in vivo
Settings: suspension of crystals as compared to an amorphous suspension
Source text: On the other hand, since amorphous cefditoren pivoxil is apt to change into a crystalline state in a solution, an antibiotic pharmaceutical composition comprising amorphous cefditoren pivoxil still needs to be improved.

## CO/N=C(\C(=O)N[C@@H]1C(=O)N2C(C(=O)OCOC(=O)C(C)(C)C)=C(/C=C\c3scnc3C)CS[C@H]12)c1csc(N)n1 [cefditoren pivoxil, (−)-(6R,7R)-7-[(Z)-2-(2-aminothiazol-4-yl)-2-methoxyiminoacetamido]-3-[(Z)-2-(4-methylthiazol-5-yl)ethenyl]-8-oxo-5-thia-1-azabicyclo[4.2.0]oct-2-ene-2-carboxylic acid 2,2-dimethylpropionyloxymethyl ester]
  Oral absorbability in dogs (in words): extremely low oral absorbability
